Laboratory results reported in patent US12162881B2, “Forms and compositions of inhibitors of JAK2” (Ajax Therapeutics, Inc., priority 2021, dated 2024).
In brackets after ≈: the same amount, converted by molar mass. Several values for one entry are separate records, joined by “and”; a condition that tells them apart may be missing. Identical values can stand only once. Blank lines part the entries; values can stand above or below the compound they belong to.

Assays:
Format in all cases: physicochemical
[1] = Physical Stability of Selected Solid Forms (vacuum oven, XRPD); conditions: vac. oven
[2] = Approximate Aqueous Solubility of Selected Solid Forms; conditions: water, thermodynamic from solid, ambient temperature
Procedure: Aliquots of various solvents were added to measured amounts of provided compounds with agitation at ambient temperature until complete dissolution was achieved, as judged by visual observation. If dissolution occurred after the addition of the first aliquot, values were reported as “>”. Results are shown in Table 18, where A is <2 mg/mL; B is <1 mg/mL.

[3] = Variable relative humidity XRPD (VRH-XRPD)
Procedure: XRPD patterns were collected with a PANalytical X'Pert PRO MPD diffractometer using an incident beam of Cu Kα radiation produced using a long, fine-focus source and a nickel filter. The diffractometer was configured using the symmetric Bragg-Brentano geometry. Data were collected and analyzed using Data Collector software v. 5.5. Prior to the analysis, a silicon specimen (NIST SRM 640f) was analyzed to verify the observed position of the Si 111 peak is consistent with the NIST-certified position. A specimen of the sample was packed in a nickel-coated copper well. Antiscatter slits (SS) were used to minimize the background generated by air. Soller slits for the incident and diffracted beams were used to minimize broadening from axial divergence. Diffraction patterns were collected using a scanning position-sensitive detector (X'Celerator) located 240 mm from the sample and Data Collector software v. 5.5.
An Anton Paar temperature-humidity chamber (THC) was used while collecting in-situ XRPD patterns as a function of humidity. The temperature of the specimen was changed with a Peltier thermoelectric device located directly under the specimen holder and monitored with a platinum-100 resistance sensor located in the specimen holder. The thermoelectric device was powered and controlled by an Anton Paar TCU 50 interfaced with Data Collector. The humidity was generated with an RH-200 manufactured by VTI Inc. and carried by a flow of nitrogen gas. The humidity was monitored by a HygroClip sensor manufactured by Rotronic located next to the specimen inside the THC.
VRH-XRPD analysis was conducted to help determine water activity boundary for the solid-state conversion between hydrated Form A and anhydrous Form B. This method was utilized due the observed high tendency of Compound 1 to form solvates, which precluded the use of solvent-mediated approach.
Overall, two VRH-XRPD experiments were conducted to qualitatively evaluate RH conditions leading to predominance of Form A over Form B and vice versa. The kinetic component was not assessed.
The first VRH-XRPD experiment was conducted with a goal of observing dehydration of hydrated Form A. An initial XRPD scan was, therefore, acquired on Form A equilibrated in-situ at ambient RH for 45 minutes, which at the time of the analysis was ˜30%. The XRPD pattern from this scan was consistent with Form A (FIG. 39, top).
XRPD patterns were collected throughout the course of the experiment, each with a 10 minute scan.
XRPD patterns were collected throughout the course of the experiment, each with a 10 minute scan. The XRPD patterns remained Form B until the RH reached approximately 60% RH, where Form A became the primary phase with some Form B remaining (FIG. 41, top two spectra). Further decrease of Form B was observed through the remainder of the 60% RH hold at which point the experiment ended (FIG. 41, bottom two spectra). Complete conversion to Form A from Form B was not observed under these conditions.

[4] = Dynamic vapor sorption (DVS) hygroscopicity; conditions: for Hysteresis: in % (unit assumed); for DVS weight loss upon desorption as water / DVS weight loss upon desorption: desorption from 95% to 5% RH; for post-DVS XRPD: solid recovered after DVS cycle; for DVS hysteresis observation: sorption/desorption 5-95% RH
Procedure: Automated vapor sorption (VS) data were collected on a Surface Measurement System DVS Intrinsic instrument. Samples were not dried prior to analysis. Sorption and desorption data were collected over a range from 5% to 95% RH at 10% RH increments under a nitrogen purge. The equilibrium criterion used for analysis was less than 0.0100% weight change in 5 minutes with a maximum equilibration time of 3 hours. Data were not corrected for the initial moisture content of the samples.

[5] = Solubility Study of Compound 1 Form 1 (solvent aliquot addition, visual observation); conditions: thermodynamic from solid, read-out: Solubility at ambient temperature
Procedure: Aliquots of various solvents were added to measured amounts of Compound 1 Form 1 with agitation at ambient temperature until complete dissolution was achieved, as judged by visual observation. […] See Table 15 below, where A is 5-20 mg/mL; B is 1-4.9 mg/mL; and C is <1 mg/mL.

[6] = visual observation, read-out: Estimated Aqueous Solubility

Compound: CC(=O)Nc1cc(Oc2cnc3nc(Nc4cc(C(F)(F)F)cn(C)c4=O)n(C)c3c2C#N)ccn1 [Compound 1 Form B, N-(4-((7-cyano-1-methyl-2-((1-methyl-2-oxo-5-(trifluoromethyl)-1,2-dihydropyridin-3-yl)amino)-1H-imidazo[4,5-b]pyridin-6-yl)oxy)pyridin-2-yl)acetamide]
- RH at which Form A became the primary phase ([3]; Experiment 2, RH incrementally increased from 15%, starting from Form B): approximately 60 % RH
- RH below which the form likely exists ([3]; VRH-XRPD and DVS data combined): below 20 % RH
- RH up to which the form may be kinetically stable ([3]; VRH-XRPD and DVS data combined): 40-60 % RH

Compound: CC(=O)Nc1cc(Oc2cnc3nc(Nc4cc(C(F)(F)F)cn(C)c4=O)n(C)c3c2C#N)ccn1.Cl [Compound 2 Form A, N-(4-((7-cyano-1-methyl-2-((1-methyl-2-oxo-5-(trifluoromethyl)-1,2-dihydropyridin-3-yl)amino)-1H-imidazo[4,5-b]pyridin-6-yl)oxy)pyridin-2-yl)acetamide hydrochloride]
- solubility [2, 6]: < 2000 µg/mL
- solubility ([2]; read-out: Aqueous solubility, visually approximated): < 2000 µg/mL
- Desorp Mass Change (%) ([4]; Target RH 5.0%): −0.0582%
- Sorp Mass Change (%) ([4]; Target RH 5.0%): 0.0009%
- Desorp Mass Change (%) ([4]; Target RH 15.0%): 0.0326%
- Sorp Mass Change (%) ([4]; Target RH 15.0%): 0.0521%
- Hysteresis ([4]; Target RH 15.0%): −0.0195
- Desorp Mass Change (%) ([4]; Target RH 25.0%): 0.0900%
- Sorp Mass Change (%) ([4]; Target RH 25.0%): 0.0998%
- Hysteresis ([4]; Target RH 25.0%): −0.0098
- Desorp Mass Change (%) ([4]; Target RH 35.0%): 0.1559%
- Sorp Mass Change (%) ([4]; Target RH 35.0%): 0.1539%
- Hysteresis ([4]; Target RH 35.0%): 0.0020
- Desorp Mass Change (%) ([4]; Target RH 45.0%): 0.2304%
- Sorp Mass Change (%) ([4]; Target RH 45.0%): 0.2007%
- Hysteresis ([4]; Target RH 45.0%): 0.0297
- Desorp Mass Change (%) ([4]; Target RH 55.0%): 0.3159%
- Sorp Mass Change (%) ([4]; Target RH 55.0%): 0.2634%
- Hysteresis ([4]; Target RH 55.0%): 0.0525
- Desorp Mass Change (%) ([4]; Target RH 65.0%): 0.4283%
- Sorp Mass Change (%) ([4]; Target RH 65.0%): 0.3387%
- Hysteresis ([4]; Target RH 65.0%): 0.0896
- Desorp Mass Change (%) ([4]; Target RH 75.0%): 0.5577%
- Sorp Mass Change (%) ([4]; Target RH 75.0%): 0.5032%
- Hysteresis ([4]; Target RH 75.0%): 0.0545
- Desorp Mass Change (%) ([4]; Target RH 85.0%): 0.6871%
- Sorp Mass Change (%) ([4]; Target RH 85.0%): 0.6403%
- Hysteresis ([4]; Target RH 85.0%): 0.0468
- Desorp Mass Change (%) ([4]; Target RH 95.0%): 0.9477%
- Sorp Mass Change (%) ([4]; Target RH 95.0%): 0.9477%
- DVS weight loss upon desorption as water [4]: 0.3 mol/mol H2O
- DVS weight loss upon desorption ([4]; hydrochloride): 1.01% and 1.0059%
- post-DVS XRPD [4]: Compound 2 Form A
- DVS weight gain as water uptake ([4]; sorption from 5% to 95% RH): 0.3 mol/mol H2O
- DVS weight gain ([4]; sorption from 5% to 95% RH, hydrochloride): 0.95% and 0.9468%
- DVS hysteresis observation [4]: No hysteresis was observed

Compound: CC(=O)Nc1cc(Oc2cnc3nc(Nc4cc(C(F)(F)F)cn(C)c4=O)n(C)c3c2C#N)ccn1 [Compound 1 Form 1, N-(4-((7-cyano-1-methyl-2-((1-methyl-2-oxo-5-(trifluoromethyl)-1,2-dihydropyridin-3-yl)amino)-1H-imidazo[4,5-b]pyridin-6-yl)oxy)pyridin-2-yl)acetamide]
- solubility ([5]; organic solvent or mixture, solvent ACN): < 1000 µg/mL
- solubility ([5]; organic solvent or mixture, solvent DCM): < 1000 µg/mL
- solubility ([5]; organic solvent or mixture, solvent DMA): 5000 to 20000 µg/mL (≈ 10000 to 40100 µM)
- solubility ([5]; organic solvent or mixture, solvent MeOH): < 1000 µg/mL
- solubility ([5]; organic solvent or mixture, solvent TFE): 5000 to 20000 µg/mL (≈ 10000 to 40100 µM)
- solubility ([5]; organic solvent or mixture, solvent THF): 1000 to 4900 µg/mL (≈ 2010 to 9830 µM)
- solubility ([5]; organic solvent or mixture, solvent acetone): < 1000 µg/mL
- solubility ([5]; water, solvent H2O): < 1000 µg/mL
- Desorp Mass Change (%) ([4]; Target RH 5.0%): −0.011%
- Sorp Mass Change (%) ([4]; Target RH 5.0%): 0.001%
- Desorp Mass Change (%) ([4]; Target RH 15.0%): 0.103%
- Sorp Mass Change (%) ([4]; Target RH 15.0%): 0.068%
- Hysteresis ([4]; Target RH 15.0%): 0.036
- Desorp Mass Change (%) ([4]; Target RH 25.0%): 3.654%
- Sorp Mass Change (%) ([4]; Target RH 25.0%): 0.118%
- Hysteresis ([4]; Target RH 25.0%): 3.536
- Desorp Mass Change (%) ([4]; Target RH 35.0%): 3.877%
- Sorp Mass Change (%) ([4]; Target RH 35.0%): 0.292%
- Hysteresis ([4]; Target RH 35.0%): 3.585
- Desorp Mass Change (%) ([4]; Target RH 45.0%): 4.084%
- Sorp Mass Change (%) ([4]; Target RH 45.0%): 0.396%
- Hysteresis ([4]; Target RH 45.0%): 3.687
- Desorp Mass Change (%) ([4]; Target RH 55.0%): 4.203%
- Sorp Mass Change (%) ([4]; Target RH 55.0%): 3.757%
- Hysteresis ([4]; Target RH 55.0%): 0.446
- Desorp Mass Change (%) ([4]; Target RH 65.0%): 4.403%
- Sorp Mass Change (%) ([4]; Target RH 65.0%): 4.049%
- Hysteresis ([4]; Target RH 65.0%): 0.354
- Desorp Mass Change (%) ([4]; Target RH 75.0%): 4.578%
- Sorp Mass Change (%) ([4]; Target RH 75.0%): 4.282%
- Hysteresis ([4]; Target RH 75.0%): 0.296
- Desorp Mass Change (%) ([4]; Target RH 85.0%): 4.677%
- Sorp Mass Change (%) ([4]; Target RH 85.0%): 4.534%
- Hysteresis ([4]; Target RH 85.0%): 0.142
- Desorp Mass Change (%) ([4]; Target RH 95.0%): 4.804%
- Sorp Mass Change (%) ([4]; Target RH 95.0%): 4.804%
- DVS weight loss ([4]; desorption from 25% to 15% RH): 3.55%
- DVS weight loss as water ([4]; desorption from 25% to 15% RH): 1.0 mol/mol H2O
- DVS weight loss upon desorption [4]: 4.82%
- DVS weight loss upon desorption as water [4]: 1.4 mol/mol H2O
- post-DVS XRPD [4]: very similar
- DVS weight gain ([4]; sorption from 5% to 95% RH): 4.80%
- DVS weight gain as water uptake ([4]; sorption from 5% to 95% RH): 1.4 mol/mol H2O
- DVS weight gain ([4]; sorption from 45% to 55% RH): 3.36%
- DVS weight gain as water uptake ([4]; sorption from 45% to 55% RH): 1.0 mol/mol H2O
- DVS hysteresis observation [4]: hysteresis evident

The next lines start with the values.

- XRPD Result (physical stability) ([1]; RT, 5 d): Compound 5 Form C
Compound: CC(=O)Nc1cc(Oc2cnc3nc(Nc4cc(C(F)(F)F)cn(C)c4=O)n(C)c3c2C#N)ccn1 [Compound 5 Form A, N-(4-((7-cyano-1-methyl-2-((1-methyl-2-oxo-5-(trifluoromethyl)-1,2-dihydropyridin-3-yl)amino)-1H-imidazo[4,5-b]pyridin-6-yl)oxy)pyridin-2-yl)acetamide camsylate]

- XRPD Result (physical stability) ([1]; 45° C., 2 d): Compound 3 Form A +
Compound: Br.CC(=O)Nc1cc(Oc2cnc3nc(Nc4cc(C(F)(F)F)cn(C)c4=O)n(C)c3c2C#N)ccn1 [Compound 3 Form A, N-(4-((7-cyano-1-methyl-2-((1-methyl-2-oxo-5-(trifluoromethyl)-1,2-dihydropyridin-3-yl)amino)-1H-imidazo[4,5-b]pyridin-6-yl)oxy)pyridin-2-yl)acetamide hydrobromide]

- solubility [2, 6]: < 1000 µg/mL
- XRPD Result (physical stability) ([1]; RT, 5 d): Esylate Form A
Compound: CC(=O)Nc1cc(Oc2cnc3nc(Nc4cc(C(F)(F)F)cn(C)c4=O)n(C)c3c2C#N)ccn1.CCS(=O)(=O)O [Esylate Form A, N-(4-((7-cyano-1-methyl-2-((1-methyl-2-oxo-5-(trifluoromethyl)-1,2-dihydropyridin-3-yl)amino)-1H-imidazo[4,5-b]pyridin-6-yl)oxy)pyridin-2-yl)acetamide esylate]

- XRPD Result (physical stability) ([1]; 45° C., 2 d): Compound 4 Form B
Compound: CC(=O)Nc1cc(Oc2cnc3nc(Nc4cc(C(F)(F)F)cn(C)c4=O)n(C)c3c2C#N)ccn1.CS(=O)(=O)O [Compound 4 Form A, N-(4-((7-cyano-1-methyl-2-((1-methyl-2-oxo-5-(trifluoromethyl)-1,2-dihydropyridin-3-yl)amino)-1H-imidazo[4,5-h]pyridin-6-yl)oxy)pyridin-2-yl)acetamide mesylate]
